# “Also recorded” adds a separate entry of the source.
# Legend:
# [1] = tested on: β-amyloid; experiment: Western Blot of intracellular β-amyloid (6E10 antibody) in cortical neurons from triple transgenic mice; type: cell-based; conditions: 10 μM gambierol between days 3 and 7 of culture; 3×Tg-AD neocortical cultures
# Source text: (§1) In order to perform the experiments of the present invention, one of the following were used: an in vitro cortical neuron model with simultaneous overexpression of tau and β-amyloid obtained from an Alzheimer's disease model in triple transgenic mice (3×Tg−AD or 3×Tg), obtainable by means of the process explained in international application WO2003/053136 and provided by the holders of said application, or an in vitro cortical neuron model obtained from non-transgenic mice (No Tg). […]
# (§2) In order to determine the effect of the compound of the present invention on the expression of tau and β-amyloid, Western Blot techniques were used. […] For the Western Blot studies, the protein expression was evaluated using the primary antibodies anti-β-amyloid 6E10 at a 1:500 dilution, anti-Tau AT8 (phosphorylated Tau at Ser 202, 1:1000 dilution) and anti-Tau AT100 (phosphorylated Tau at Thr 212 and Ser 214, 1:1000 dilution). […]
# (§3) For the Western Blot assays, the neuronal cultures treated with the compound of the present invention were washed with cold PBS and lysed in 50 mM Tris-HCl buffer (pH 7.4), which contains 150 mM NaCl, 1 mM EDTA, 1% Triton X-100, 2 mM DTT, 2.5 mM PMSF, 40 mg/ml aprotinin, 4 mg/ml leupeptin, 5 mM NaF, 1 mM Na3VO4, 1 mg/ml pepstatin A and 1 mg/ml benzamidine. The total protein concentration was determined by Bradford's method, using bovine albumin as the standard. […]
# [2] = tested on: phosphorylated Tau at Ser 202; experiment: Western Blot of phosphorylated tau at Ser 202 (AT8 antibody) in cortical neurons from triple transgenic mice; type: cell-based; conditions: 10 μM gambierol between days 3 and 7 of culture; 3×Tg cultures; p<0.05, n=3
# Source text: as §1, §2, §3
# [3] = tested on: cortical neurons; experiment: Cell viability, Alamar Blue fluorescence assay in primary cortical cultures; type: cell-based, mice; conditions: up to a concentration of 20 μM
# Source text: (§4) In order to perform the experiments of the present invention, one of the following were used: an in vitro cortical neuron model with simultaneous overexpression of tau and β-amyloid obtained from an Alzheimer's disease model in triple transgenic mice (3×Tg−AD or 3×Tg), obtainable by means of the process explained in international application WO2003/053136 and provided by the holders of said application, or an in vitro cortical neuron model obtained from non-transgenic mice (No Tg). The triple transgenic neuronal model presents simultaneous overexpression of the human transgenes for presenilin (PS1M146V), the β-amyloid precursor protein (APPSwe) and the tau protein (tauP301L), which leads to an Alzheimer's model with overexpression of β-amyloid and hyperphosphorylation of tau.
# (§5) The primary cortical cultures were obtained from 3×Tg−AD mice embryos of 15-17 days of gestation and the wild cultures were obtained from control non-3×Tg−AD mice embryos of the same strain. The effect of the compound used in this invention on the cell viability was determined by means of a fluorescence assay using the Alamar Blue viability indicator. In order to perform the assay, primary cortical cultures seeded in 96-well plates were used. The neuronal cells were incubated with the compound of the present invention, which was dissolved in dimethyl sulfoxide (DMSO) and added to the culture medium at different concentrations, and the effect thereof on the neuronal viability was determined at different times of treatment in vitro. The maximum concentration of gambierol evaluated in vitro was 20 μM and the concentration of Alamar Blue was 10%. The reaction volume used was 200 μl. The fluorescence was measured at wavelengths of 530 nm (excitation) and 590 nm (emission).
# [4] = as above; type: cell-based, mice; conditions: mouse, primary cortical neuron cultures from mouse embryos, 72 hours in culture, mean ± standard error, three experiments, read-out: Viability of cortical neurons, % with respect to the control
# Source text: as §4, §5
# [5] = tested on: phosphorylated Tau at Thr 212 and Ser 214; experiment: Western Blot of phosphorylated tau at Thr 212 and Ser 214 (AT100 antibody) in cortical neurons from triple transgenic mice; type: cell-based; conditions: 10 μM gambierol between days 3 and 7 of culture; 3×Tg cultures; p<0.05, n=3
# Source text: as §1, §2, §3
# [6] = tested on: phosphorylated tau at residue Ser 202; experiment: Western Blot of baseline phosphorylated tau at Ser 202 in control neurons from non-transgenic mice; type: cell-based
# Experimental: (§6) In order to determine the effect of gambierol on the baseline phosphorylation of tau, Western Blot techniques were used. An in vitro cortical nueron model obtained from non-transgenic mice was used. The neuronal cultures and the processing of the samples were performed in the same manner as in the preceding example. The data obtained were corrected with the quantity of β-actin as a function of the protein content of the samples.
# [7] = tested on: total tau; experiment: Western Blot of baseline total tau (Tau46 antibody) in control neurons from non-transgenic mice; type: cell-based
# Experimental: as §6
# [8] = tested on: extracellular β-amyloid peptide (β-amyloid 1-42 or β-amyloid 1-40); experiment: ELISA of extracellular β-amyloid in culture medium of cortical neurons; type: cell-based, mice; conditions: triple transgenic cultures treated with gambierol compared to those not treated
# Experimental: The levels of extracellular β-amyloid in the culture medium of cortical neurons obtained from triple transgenic mice or from control mice treated with gambierol were determined by means of commercial ELISA kits for the detection of β-amyloid 1-42 or β-amyloid 1-40, following the manufacturer's recommended instructions (Covance). These kits are composed of plates treated with antibodies which capture the β-amyloid peptide at the amino-terminal end thereof. The standards with known quantities of β-amyloid, and the culture medium collected from the neuronal preparations with unknown quantities of β-amyloid, were added to the wells and incubated. The plates were washed in order to eliminate the unbound peptide and incubated for 2 hours in the presence of an antibody that binds to the carboxyl-terminal end of the β-amyloid peptide. Subsequently, the plates were washed and incubated with a peroxidase-conjugated secondary antibody. […] The optical density was measured by the absorbance at 495 nm, and a straight-line pattern was obtained (FIG. 4) with the quantities of β-amyloid added, wherefrom the quantity of β-amyloid in the culture medium collected from the neuronal preparations treated with the compounds of the present invention could be extrapolated (FIG. 5).
# [9] = 10 μM gambierol, mean ± standard error, two experiments
smiles,measurement,setting,value
C=CC/C=C\C=C/C1OC2CC3OC4CCC5OC6CC7(C)OC8(C)C(O)CC(CCCO)OC8CC7OC6CC5OC4(C)CC3(C)OC2C=CC1(C)O (stereo not drawn) [gambierol],"Overexpression of intracellular β-amyloid (6E10, Western Blot), in words",[1],significant decrease; also recorded: reduces
same,"Phosphorylated tau at Ser 202 (AT8, Western Blot), in words",[2],significant decrease; also recorded: reduces
same,Effect on cell viability of cortical neuronal cultures (in words),[3],does not cause a reduction in the viability; also recorded: did not modify the cell viability
same,"viability at 72 h, 0.25 μM",[4]; 0.25 μM gambierol,103 ± 5.2%
same,"viability at 72 h, 0.5 μM",[4]; 0.5 μM gambierol,110 ± 1.4%
same,"viability at 72 h, 1 μM",[4]; 1 μM gambierol,105 ± 6.3%
same,"viability at 72 h, 5 μM",[4]; 5 μM gambierol,106 ± 4.7%
same,"viability at 72 h, 10 μM",[4]; 10 μM gambierol,105 ± 5.8%
same,"viability at 72 h, 20 μM",[4]; 20 μM gambierol,102 ± 3.8%
same,"Phosphorylated tau at Thr 212 and Ser 214 (AT100, Western Blot), in words",[5],significant decrease; also recorded: reduces
same,Baseline level of phosphorylated tau at residue Ser 202 in control neurons (in words),[6],did not affect
same,"Levels of phosphorylated tau at residue Ser 202 in control neurons, % with respect to the control",[6]; [9],107 ± 8.1%
same,Baseline quantity of total tau in control neurons (in words),[7],did not affect
same,"Baseline levels of total tau in control neurons, % with respect to the control",[7]; [9],111 ± 3.9%
same,Levels of extracellular β-amyloid peptide secreted into the culture medium (in words),[8],decrease

# — US20120283321A1, “USE OF GAMBIEROL FOR TREATING AND/OR PREVENTING NEURODEGENERATIVE DISEASES RELATED TO TAU AND BETA-AMYLOID” (Universidade De Santiago De Compostela, priority 2009, published 2012)
